Measured values reported in PMC9952435, “Characterization of Two Novel AmpC Beta-Lactamases from the Emerging Opportunistic Pathogen, Cedecea neteri” (Antibiotics, 2023).
Like-named read-outs stand apart in the source and are kept apart here.

Key:
[1] = tested on: rAmpC CNE-2 from C. neteri ATCC 33855; format: biochemical; conditions: for Km: Ki or Km,apparent, 200 µM nitrocefin reporter, 500 nM rAmpC, all standard deviations ≤15%
[2] = tested on: rAmpC CNE-2 from C. neteri ATCC 33855; format: biochemical; conditions: nitrocefin as substrate; 500 nM rAmpC, pH 7, 30 °C

Structure (SMILES)	Km [1] [µM]	further results
CC1(C)S[C@@H]2[C@H](NC(=O)[C@H](N)c3ccccc3)C(=O)N2[C@H]1C(=O)O [Ampicillin, ampicillin]	12	–
Cc1nnc(SCC2=C(C(=O)O)N3C(=O)[C@@H](NC(=O)Cn4cnnn4)[C@H]3SC2)s1 [Cefazolin, cefazolin]	100	–
CO[C@@]1(NC(=O)Cc2cccs2)C(=O)N2C(C(=O)O)=C(COC(N)=O)CS[C@@H]21 [Cefoxitin, cefoxitin]	54	Km, fold higher than for CDA-1 from C. davisae ([1]; CNE-2 compared with CDA-1 (ref 13)): 100 fold
CO/N=C(\C(=O)N[C@@H]1C(=O)N2C(C(=O)O)=C(COC(N)=O)CS[C@H]12)c1ccco1 [Cefuroxime, cefuroxime]	4	–
CC1=C(C(=O)O)N2C(=O)[C@@H](NC(=O)[C@H](N)c3ccccc3)[C@H]2SC1 [Cephalexin, cephalexin]	5	–
C[C@@H](O)[C@H]1C(=O)N2C(C(=O)O)=C(SCCN=CN)C[C@H]12 [Imipenem, imipenem]	2	Km ([1]; listed as imipenem): ~2 µM
CC1(C)S[C@@H]2[C@H](NC(=O)Cc3ccccc3)C(=O)N2[C@H]1C(=O)O [Penicillin, penicillin]	11	–
O=C(Cc1cccs1)N[C@@H]1C(=O)N2C(C(=O)O)=C(/C=C/c3ccc([N+](=O)[O-])cc3[N+](=O)[O-])CS[C@H]12 [nitrocefin]	–	Km [2]: 133 ± 11 µM; kcat [2]: 3.13 ± 0.27 s⁻¹
